These results are taken from patent US20230141569A1, “FLUORESCENT DYE, AND PREPARATION METHOD AND USES THEREOF” (FLUORESCENCE DIAGNOSIS (SHANGHAI) BIOTECH COMPANY LTD., priority 2020, published 2023).

Data set [1] can be described thus: Viscosity response: fluorescence in glycerin vs methanol (Test Example 1). As to conditions: final concentration 1×10^−5 M; for Glycerin/Methanol Fluorescence Intensity Ratio: excited at maximum excitation wavelength of each dye; for Maximum Excitation Wavelength (nm): glycerin and methanol. The format is physicochemical.
Data set [2] can be described thus: Fluorescence emission at different viscosity conditions, diethanol-glycerol mixed solution (Test Example 2). The format is physicochemical. As to conditions: 1×10^−5 M, excited at 480 nm.
Data set [3] relates to RNA aptamer. The experiment in a line: Optical properties after binding to RNA aptamer (Test Example 4). Conditions: for Em/nm / Ex/nm / ε / QY (−): after binding to RNA aptamer; for QY (−): relative method with Rhodamine 6G as the standard; for compound fluorescence after binding to RNA aptamer: excited at a suitable wavelength. The format is biochemical.
Data set [4] has as its system RNA aptamer. The experiment in a line: Labeling intracellular RNA aptamer in cells (Test Example 4, FIG. 20A/20B). The format is cell-based. As to conditions: for fluorescence of cells expressing the RNA aptamer: FIG. 20A; for fluorescence of cells not expressing the RNA aptamer: FIG. 20B. From the text: FIGS. 20A and 20B are the application of molecular rotors IV-1, IV-2, IV-3, IV-4, IV-5, IV-6, IV-17, IV-18, IV-19, IV-20, IV-21, IV-22 in labeling intracellular RNA aptamer, wherein FIG. 20A are cells expressing the target RNA aptamer, and FIG. 20B are cells not expressing the target RNA aptamer;

For the compound `CN1C(=O)/C(=C/c2cc(Cl)c(O)c(Cl)c2)N=C1/C=C/c1ccc(Br)cc1` [IV-13], in data set [1], the “Glycerin/Methanol Fluorescence Intensity Ratio” value turned out to be 711 and the “Maximum Excitation Wavelength (nm)” value was 590 nm.
For the compound `CN1C(=O)/C(=C/c2cc(F)c(O)c(F)c2)N=C1/C=C/c1cccc(F)c1` [IV-6], in data set [1], the “Glycerin/Methanol Fluorescence Intensity Ratio” value is listed as 921 and the “Maximum Excitation Wavelength (nm)” value is 578 nm. Besides, the “fluorescence intensity at different viscosity conditions” value in data set [2] was “gradually increasing fluorescence intensity”. For the same compound, in the data set on RNA aptamer [3], the Em/nm is 578 nm, the Ex/nm is on record as 490 nm, the “ε” value was found to be 24000 M⁻¹ cm⁻¹ and the “QY (−)” value is reported as 0.37. Also, in the data set on RNA aptamer [3], the “compound fluorescence after binding to RNA aptamer” value (from here on “compound fluorescence after binding”) is recorded as “noticeably activated”. In addition, in the data set with RNA aptamer [4], the “fluorescence of cells expressing the RNA aptamer” value is “bright fluorescence” and the “fluorescence of cells not expressing the RNA aptamer” value is “no fluorescence”.
In the case of `CN1C(=O)/C(=C/c2ccc(O)c(F)c2)N=C1/C=C/c1ccc(C#N)cc1` [IV-9], in data set [1], the “Glycerin/Methanol Fluorescence Intensity Ratio” value amounted to 697 and the “Maximum Excitation Wavelength (nm)” value amounted to 615 nm.
Turning to `CN1C(=O)/C(=C/c2cc(F)c(O)c(F)c2)N=C1/C=C/c1cccc(O)c1` [IV-4], in data set [1], the “Glycerin/Methanol Fluorescence Intensity Ratio” value turned out to be 687 and the “Maximum Excitation Wavelength (nm)” value is reported as 574 nm. Moreover, in data set [2], the “fluorescence intensity at different viscosity conditions” value is on record as “gradually increasing fluorescence intensity”. In the data set on RNA aptamer [3], the Em/nm came out at 574 nm, the Ex/nm turned out to be 490 nm, the “ε” value worked out at 23333 M⁻¹ cm⁻¹ and the “QY (−)” value is 0.37. The “compound fluorescence after binding” value in the data set with RNA aptamer [3] is recorded as “noticeably activated”. In the data set with RNA aptamer [4], the “fluorescence of cells expressing the RNA aptamer” value was “bright fluorescence” and the “fluorescence of cells not expressing the RNA aptamer” value is on record as “no fluorescence”.
Regarding `CN1C(=O)/C(=C/c2ccc(N(C)CCO)cc2)N=C1/C=C/c1cccc(C#N)c1` [IV-18], in data set [1], the “Glycerin/Methanol Fluorescence Intensity Ratio” value was 890 and the “Maximum Excitation Wavelength (nm)” value is listed as 595 nm. Also, in data set [2], the “fluorescence intensity at different viscosity conditions” value is “gradually increasing fluorescence intensity”. Moreover, in the data set on RNA aptamer [3], the Em/nm is 600 nm, the Ex/nm stood at 536 nm, the “ε” value came to 25000 M⁻¹ cm⁻¹ and the “QY (−)” value was 0.43. The “compound fluorescence after binding” value in the data set on RNA aptamer [3] is “noticeably activated”. In the data set with RNA aptamer [4], the “fluorescence of cells expressing the RNA aptamer” value is on record as “bright fluorescence” and the “fluorescence of cells not expressing the RNA aptamer” value is reported as “no fluorescence”.
Turning to `CN1C(=O)/C(=C/c2ccc(N(C)CCS(=O)(=O)O)cc2)N=C1/C=C/c1ccc(C#N)cc1` [IV-28], in data set [1], the “Glycerin/Methanol Fluorescence Intensity Ratio” value stood at 942 and the “Maximum Excitation Wavelength (nm)” value is on record as 620 nm.
As to `CN1C(=O)/C(=C/c2cc(F)c(O)c(F)c2)N=C1/C=C/c1ccc(C#N)cc1` [IV-1], in data set [1], the “Glycerin/Methanol Fluorescence Intensity Ratio” value was 987 and the “Maximum Excitation Wavelength (nm)” value was 618 nm. Moreover, in data set [2], the “fluorescence intensity at different viscosity conditions” value is given as “gradually increasing fluorescence intensity”. Besides, in the data set on RNA aptamer [3], the Em/nm was 618 nm, the Ex/nm amounted to 510 nm, the “ε” value is 20667 M⁻¹ cm⁻¹ and the “QY (−)” value was determined as 0.17. Further, the “compound fluorescence after binding” value with RNA aptamer [3] is “noticeably activated”. In the data set on RNA aptamer [4], the “fluorescence of cells expressing the RNA aptamer” value is on record as “bright fluorescence” and the “fluorescence of cells not expressing the RNA aptamer” value is given as “no fluorescence”.
`CN1C(=O)/C(=C/c2ccc(N(C)CCO)cc2)N=C1/C=C/c1cccc(F)c1` [IV-19]: in data set [1], the “Glycerin/Methanol Fluorescence Intensity Ratio” value turned out to be 821 and the “Maximum Excitation Wavelength (nm)” value is reported as 577 nm. In addition, the “fluorescence intensity at different viscosity conditions” value in data set [2] was “gradually increasing fluorescence intensity”. For the same compound, in the data set with RNA aptamer [3], the Em/nm is given as 590 nm, the Ex/nm is reported as 522 nm, the “ε” value was found to be 30000 M⁻¹ cm⁻¹ and the “QY (−)” value came out at 0.43. Further, the “compound fluorescence after binding” value with RNA aptamer [3] was “noticeably activated”. Besides, in the data set on RNA aptamer [4], the “fluorescence of cells expressing the RNA aptamer” value is “bright fluorescence” and the “fluorescence of cells not expressing the RNA aptamer” value is listed as “no fluorescence”.
Regarding `O=C1NC(/C=C/c2ccc(Br)cc2)=NC/1=C\c1cc(Cl)c(O)c(Cl)c1` [IV-16], in data set [1], the “Glycerin/Methanol Fluorescence Intensity Ratio” value amounted to 689 and the “Maximum Excitation Wavelength (nm)” value came out at 595 nm.
`CN1C(=O)/C(=C/c2cc(F)c(O)c(F)c2)N=C1/C=C/c1cccc(C#N)c1` [IV-2]: in data set [1], the “Glycerin/Methanol Fluorescence Intensity Ratio” value was 687 and the “Maximum Excitation Wavelength (nm)” value stood at 595 nm. Moreover, in data set [2], the “fluorescence intensity at different viscosity conditions” value is “gradually increasing fluorescence intensity”. Moreover, in the data set with RNA aptamer [3], the Em/nm came to 595 nm, the Ex/nm is listed as 492 nm, the “ε” value was determined as 25000 M⁻¹ cm⁻¹ and the “QY (−)” value was 0.36. For the same compound, the “compound fluorescence after binding” value in the data set on RNA aptamer [3] was “noticeably activated”. In the data set with RNA aptamer [4], the “fluorescence of cells expressing the RNA aptamer” value was “bright fluorescence” and the “fluorescence of cells not expressing the RNA aptamer” value is on record as “no fluorescence”.
Take `COC(=O)CNCCN(C)c1ccc(/C=C2N=C(/C=C/c3ccc(Br)cc3)N(C)C\2=O)cc1` [IV-30]: in data set [1], the “Glycerin/Methanol Fluorescence Intensity Ratio” value was 921 and the “Maximum Excitation Wavelength (nm)” value turned out to be 582 nm.
The like results for `CN1C(=O)/C(=C/c2ccc3c(c2)OCCN3C)N=C1/C=C/c1ccc(F)cc1` [IV-34] were, in that order, 810 and 603 nm.
The like results for `CCCN1C(=O)/C(=C/c2cc3c4c(c2)CCCN4CCC3)N=C1/C=C/c1ccc(C#N)cc1` [IV-27] were, in that order, 890 and 600 nm.
The like results for `C#CCOCCN(C)c1ccc(/C=C2N=C(/C=C/c3ccc(F)cc3)N(C)C\2=O)cc1` [IV-37] were, in that order, 801 and 580 nm.
In the case of `CCCN1C(=O)/C(=C/c2cc(F)c(O)c(I)c2)N=C1/C=C/c1ccc(Cl)cc1` [IV-12], in data set [1], the “Glycerin/Methanol Fluorescence Intensity Ratio” value is given as 898 and the “Maximum Excitation Wavelength (nm)” value amounted to 573 nm.
The like results for `CC1=CC(C)(C)N(C)c2ccc(/C=C3N=C(/C=C/c4ccc(C#N)cc4)N(C)C\3=O)cc21` [IV-33] were, in that order, 729 and 605 nm.
Taken in the same sequence, the figures for `CCN1C(=O)/C(=C/c2cc(F)c(O)c(Cl)c2)N=C1/C=C/c1ccc(C#N)cc1` [IV-10] were 779 and 620 nm.
Taken in the same sequence, the figures for `CN1C(=S)/C(=C/c2cc(F)c(O)c(F)c2)N=C1/C=C/c1ccc(F)cc1` [IV-7] were 873 and 570 nm.
For the compound `C=CCOCCN(C)c1ccc(/C=C2N=C(/C=C/c3ccccc3C#N)N(C)C\2=S)cc1` [IV-23], in data set [1], the “Glycerin/Methanol Fluorescence Intensity Ratio” value came out at 915 and the “Maximum Excitation Wavelength (nm)” value worked out at 617 nm.
Taken in the same sequence, the figures for `CCCN1C(=S)/C(=C/c2ccc(N(C)C)nc2)N=C1/C=C/c1ccccc1F` [IV-24] were 934 and 551 nm.
The like results for `CN1C(=O)/C(=C/c2ccc3cc(N(C)CCO)ccc3c2)N=C1/C=C/c1cccc(O)c1` [IV-36] were, in that order, 792 and 690 nm.
Taken in the same sequence, the figures for `CN1C(=O)/C(=C/c2cnc(N(C)CCC#N)nc2)N=C1/C=C/c1ccccc1I` [IV-26] were 937 and 555 nm.
`CN1C(=O)/C(=C/c2ccc(N)cc2)N=C1/C=C/c1ccc(C#N)cc1` [IV-35]: in data set [1], the “Glycerin/Methanol Fluorescence Intensity Ratio” value is recorded as 776 and the “Maximum Excitation Wavelength (nm)” value came out at 561 nm.
In the case of `CN1C(=O)/C(=C/c2ccc(N(C)CCN)cc2)N=C1/C=C/c1cccc(F)c1` [IV-31], in data set [1], the “Glycerin/Methanol Fluorescence Intensity Ratio” value came to 902 and the “Maximum Excitation Wavelength (nm)” value was found to be 581 nm.
For the compound `CCCCCCN(CCCCCC)c1cnc(/C=C2N=C(/C=C/c3cccc(Cl)c3)N(C)C\2=O)cn1` [IV-25], in data set [1], the “Glycerin/Methanol Fluorescence Intensity Ratio” value was determined as 918 and the “Maximum Excitation Wavelength (nm)” value was determined as 591 nm.
Taken in the same sequence, the figures for `CN(C)CCN(C)c1ccc(/C=C2N=C(/C=C/c3cccc(F)c3)N(C)C\2=O)cc1` [IV-32] were 999 and 580 nm.
Take `CN1C(=O)/C(=C/c2ccc(O)c(Br)c2)N=C1/C=C/c1cccc(Cl)c1` [IV-15]: in data set [1], the “Glycerin/Methanol Fluorescence Intensity Ratio” value is reported as 730 and the “Maximum Excitation Wavelength (nm)” value worked out at 586 nm.
The like results for `CCN1C(=O)/C(=C/c2ccc(O)c(Cl)c2)N=C1/C=C/c1ccc(I)cc1` [IV-14] were, in that order, 699 and 585 nm.
The like results for `COCCOCCOCCOCC(=O)OCCN(C)c1ccc(/C=C2N=C(/C=C/c3ccc(C#N)cc3)N(C)C\2=O)cc1` [IV-29] were, in that order, 829 and 618 nm.
On to `CN1C(=S)/C(=C/c2cc(F)c(O)c(F)c2)N=C1/C=C/c1ccc(C#N)cc1` [IV-8], for which, in data set [1], the “Glycerin/Methanol Fluorescence Intensity Ratio” value was found to be 861 and the “Maximum Excitation Wavelength (nm)” value is 638 nm.
Taken in the same sequence, the figures for `CN1C(=O)/C(=C/c2cnc3cc(N(C)C)ccc3c2)N=C1/C=C/c1cccc(C#N)c1` [IV-38] were 529 and 705 nm.
